Source: patent publication US8013169B2, “Naphthylmethylimidizoles as therapeutic agents” (Allergan, Inc, priority 2007, dated 2011)

Experiments:
Alpha 1A = biological target: T1, Alpha 1A (Homo sapiens, UniProt P35348); assay: RSAT assay, Alpha 1A; format: cell-based; conditions: for Alpha 1A (IA) intrinsic activity: ratio of maximal effect of drug to maximal effect of standard full agonist
T1 construct: expressed in transfected cells; host or cells: NIH-3T3
T1 sequence (P35348 1-466): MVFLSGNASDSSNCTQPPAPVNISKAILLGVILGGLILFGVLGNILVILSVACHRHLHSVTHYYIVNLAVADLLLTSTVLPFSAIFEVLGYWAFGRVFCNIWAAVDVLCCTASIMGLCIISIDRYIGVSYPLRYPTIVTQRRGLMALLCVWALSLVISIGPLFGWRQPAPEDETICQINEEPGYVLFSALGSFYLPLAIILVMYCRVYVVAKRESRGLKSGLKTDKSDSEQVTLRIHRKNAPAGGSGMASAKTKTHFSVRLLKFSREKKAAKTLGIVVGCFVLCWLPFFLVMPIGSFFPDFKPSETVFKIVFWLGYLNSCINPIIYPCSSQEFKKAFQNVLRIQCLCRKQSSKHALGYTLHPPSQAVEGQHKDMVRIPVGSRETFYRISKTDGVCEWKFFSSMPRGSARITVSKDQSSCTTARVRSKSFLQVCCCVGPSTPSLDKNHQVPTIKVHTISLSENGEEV
Experimental: (§1) The RSAT assay measures a receptor-mediated loss of contact inhibition that results in selective proliferation of receptor-containing cells in a mixed population of confluent cells. The increase in cell number is assessed with an appropriate transfected marker gene such as […]-galactosidase, the activity of which can be easily measured in a 96-well format. Receptors that activate the G protein, Gq, elicit this response. Alpha2 receptors, which normally couple to Gi, activate the RSAT response when coexpressed with a hybrid Gq protein that has a Gi receptor recognition domain, called Gq/i5.
NIH-3T3 cells are plated at a density of 2×10^6 cells in 15 cm dishes and maintained in Dulbecco's modified Eagle's medium supplemented with 10% calf serum. One day later, cells are cotransfected by calcium phosphate precipitation with mammalian expression plasmids encoding p-SV-β-galactosidase (5-10 μg), receptor (1-2 μg) and G protein (1-2 μg). 40 μg salmon sperm DNA may also be included in the transfection mixture. Fresh media is added on the following day and 1-2 days later, cells are harvested and frozen in 50 assay aliquots. Cells are thawed and 100 μl added to 100 μl aliquots of various concentrations of drugs in triplicate in 96-well dishes. Incubations continue 72-96 hr at 37° C. After washing with phosphate-buffered saline, β-galactosidase enzyme activity is determined by adding 200 μl of the chromogenic substrate (consisting of 3.5 mM o-nitrophenyl-β-D-galactopyranoside and 0.5% nonidet P-40 in phosphate buffered saline), incubating overnight at 30° C. and measuring optical density at 420 nm. The absorbance is a measure of enzyme activity, which depends on cell number and reflects a receptor-mediated cell proliferation. The efficacy or intrinsic activity is calculated as a ratio of the maximal effect of the drug to the maximal effect of a standard full agonist for each receptor subtype. Brimonidine, also called UK14304, the chemical structure of which is shown below, is used as the standard agonist for the alpha2A, alpha2B and alpha2C receptors. The EC50 is the concentration at which the drug effect is half of its maximal effect.
EC50 values are nanomolar. NA stands for “not active” at concentrations less than 10 micromolar. IA stands for “intrinsic activity.”

Alpha 2B = biological target: T2, Alpha 2B (Homo sapiens, UniProt P18089); assay: RSAT assay, Alpha 2B; format: cell-based
T2 construct: expressed in transfected cells; host or cells: NIH-3T3
T2 sequence (P18089 1-450): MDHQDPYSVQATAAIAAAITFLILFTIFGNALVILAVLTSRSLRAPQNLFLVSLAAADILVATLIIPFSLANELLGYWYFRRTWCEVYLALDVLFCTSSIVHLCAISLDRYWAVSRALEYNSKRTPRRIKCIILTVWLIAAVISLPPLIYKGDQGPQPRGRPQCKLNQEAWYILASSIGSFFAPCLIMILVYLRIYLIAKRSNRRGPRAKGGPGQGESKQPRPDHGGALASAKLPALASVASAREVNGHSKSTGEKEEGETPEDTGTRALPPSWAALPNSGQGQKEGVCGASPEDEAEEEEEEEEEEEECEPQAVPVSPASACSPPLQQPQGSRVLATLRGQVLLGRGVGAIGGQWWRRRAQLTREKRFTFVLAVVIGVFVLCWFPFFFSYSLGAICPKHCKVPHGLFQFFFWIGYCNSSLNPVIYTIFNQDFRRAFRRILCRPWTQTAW
Experimental: as §1
NIH-3T3 cells are plated at a density of 2×10^6 cells in 15 cm dishes and maintained in Dulbecco's modified Eagle's medium supplemented with 10% calf serum. […] After washing with phosphate-buffered saline, β-galactosidase enzyme activity is determined by adding 200 μl of the chromogenic substrate (consisting of 3.5 mM o-nitrophenyl-β-D-galactopyranoside and 0.5% nonidet P-40 in phosphate buffered saline), incubating overnight at 30° C. and measuring optical density at 420 nm. The absorbance is a measure of enzyme activity, which depends on cell number and reflects a receptor-mediated cell proliferation. The efficacy or intrinsic activity is calculated as a ratio of the maximal effect of the drug to the maximal effect of a standard full agonist for each receptor subtype. […]

CNc1ccc(Cc2nc[nH]c2C)c2ccccc12 [Compound 7, N-methyl-4-((5-methyl-1H-imidazol-4-yl)methyl)naphthalen-1-amine]
EC50 (Alpha 1A): 13 nM | Alpha 1A (IA) intrinsic activity (Alpha 1A): 1.2

Cc1[nH]cnc1Cc1ccc(N)c2ccccc12 [Compound 8, 4-((5-methyl-1H-imidazol-4-yl)methyl)naphthalen-1-amine]
EC50 (Alpha 2B; RSAT, NIH-3T3 cells coexpressing Gq/i5, NA = not active at concentrations less than 10 micromolar): 146 nM | Alpha 2B (IA) intrinsic activity (Alpha 2B; ratio of maximal effect of drug to maximal effect of standard full agonist brimonidine): 0.46 | EC50 (Alpha 1A): 55 nM | Alpha 1A (IA) intrinsic activity (Alpha 1A): 1.01
